Measured values as given in patent US7691572B2, “Method and kit for detecting resistance to antiviral drugs” (priority 1998, dated 2010).
Where “and” joins values, the source holds several entries; their conditions need not be identical. Identical values can stand only once. Like-named read-outs stand apart in the source and are kept apart here.

Experiments:
[1] = system: HIV-1 RT; experiment: Amp-RT assay, AZT-TP and other NRTI-TPs, reference viruses; assay type: biochemical
[2] = target: HIV-1 RT (Human immunodeficiency virus type 1 group M subtype B, UniProt P04585, M628L/L661V/V693A/T802Y); conditions: 50 μM; HIV-1RTMDR1/MT-2 (74V/41L/106A/215Y)
Description: (§1) For culture supernatant, 10 μl were used directly in the Amp-RT assay. For plasma testing, a volume of 100 μl was clarified by centrifugation at 10,000 g for five minutes and then ultracentrifuged at a fixed angle at 99,000 g for 1 hour at 4° C. The viral pellet was resuspended in 100 μl of RT buffer (50 mM Tris-HCl, 50 mM KCl, 10 mM MgCl2). Ten microliter aliquots of virus pellets were applied to an RT buffer containing 10 ng of EMCV RNA template, 10 units of RNasin, 0.6% NP-40, 100 ng of the 5′-biotin-labeled EMCR2 antisense primer, 1 nM EGTA, 2 mM dithiothreitol, 50 mM Tris-HCl, 50 mM KCl, 10 mM MgCl2, and 400 uM of each dNTP. Reactions were incubated at 37° C. for 2 hours and then heated at 95° C. for five minutes to destroy RT activity. […] The conditions for PCR were 35 cycles at 95° C. for one minute, 55° C. for one minute, and 72° C. for one minute.
(§2) For quantitation of RT levels, a standard curve was generated by using known RT units from a reference HIV-1 stock (Virology Quality Assurance Laboratory, Rush-Presbyterian-St. Luke's Medical Center, Chicago, Ill.). […] All samples were tested within the linear range of the Amp-RT assay (from 10^−6 to 10^−10 units of RT activity). Samples which had levels of RT activity above the linear range of the assay, were further diluted in RT buffer and retested again. The minimum detectable level of HIV-1 RT activity by the Amp-RT in plasma is 10^−10 units, the equivalent of 1 HIV-1 particle of the reference virus used for quantitation. The results of Amp-RT signals were expressed as units of RT activity per milliliter of plasma and reflect the average of duplicate results.

[3] = system: HIV-1 RT
Description: as §1, §2

[4] = target: plasma HIV-1 RT (Human immunodeficiency virus type 1, UniProt P04585); conditions: 50 μM nevirapine
Description: as §1, §2

[5] = system: HIV-1 isolates; conditions: read-out: IC50 Culture, cited from earlier work
[6] = MNR HIV-1SUM12 (F77L, F116Y, Q151M)
[7] = MNR HIV-1SUM13 (A62V, V75I, F77L, F116Y, Q151M)

Nc1ncnc2c1ncn2[C@H]1CC[C@@H](COP(=O)(O)OP(=O)(O)OP(=O)(O)O)O1 [ddA-TP]
IC50 ([1]; MNR HIV-1SUM8 (Q151M)): 1200 nM
fold resistance (IC50) as compared to the mean IC values of WT HIV-1 ([1]; MNR HIV-1SUM8 (Q151M)): (6.5) fold
IC50 [1, 6]: 1100 nM
fold resistance (IC50) as compared to the mean IC values of WT HIV-1 [1, 6]: (5.9) fold
IC50 [1, 7]: 6000 nM
fold resistance (IC50) as compared to the mean IC values of WT HIV-1 [1, 7]: (32.4) fold
IC50 ([1]; WT HIV-1SUM9): 270 nM
IC50 ([1]; WT HIV-1xxBRUpitt): 100 nM

Cc1cn([C@H]2C=C[C@@H](COP(=O)(O)OP(=O)(O)OP(=O)(O)O)O2)c(=O)[nH]c1=O [d4T-TP]
IC50 ([1]; MNR HIV-1SUM8 (Q151M)): 320 nM
fold resistance (IC50) as compared to the mean IC values of WT HIV-1 ([1]; MNR HIV-1SUM8 (Q151M)): (9.1) fold
IC50 [1, 6]: 370 nM
fold resistance (IC50) as compared to the mean IC values of WT HIV-1 [1, 6]: (10.6) fold
IC50 [1, 7]: 370 nM
fold resistance (IC50) as compared to the mean IC values of WT HIV-1 [1, 7]: (10.6) fold
IC50 ([1]; WT HIV-1LAI): 15 nM
IC50 ([1]; WT HIV-1SUM9): 55 nM

Cc1ccnc2c1NC(=O)c1cccnc1N2C1CC1 [nevirapine]
Inhibition of RT by Nevirapine [2]: partially inhibited
inhibition of RT ([3]; 50 μM nevirapine, isolate W786-6, 8.3×10^−9 units of RT activity): no significant inhibition
Inhibition of RT. (%) ([3]; 50 μM nevirapine, isolate W786-6, input 5.6 × 10^−8 units): 0%
Inhibition of RT. (%) ([3]; 50 μM nevirapine, isolate X267-1, input 6.9 × 10^−9 units): complete inhibition and 100%
Inhibition of RT. (%) ([3]; 50 μM nevirapine, isolate X267-1, input 7.1 × 10^−7 units): 98.6%
Inhibition of RT. (%) ([3]; 50 μM nevirapine, isolate X267-1, input 7.1 × 10^−7 units, listed as Nevirapine): 98.7%
Inhibition of RT. (%) ([3]; 50 μM nevirapine, isolate X267-1, input 7.2 × 10^−8 units): complete inhibition and 100%
Inhibition of RT. (%) ([3]; 50 μM nevirapine, isolate X403-4, input 4.4 × 10^−7 units): 16%
inhibition of RT ([3]; 50 μM nevirapine, isolates X403-4 and W786-6, high or low input of RT): no significant inhibition
Inhibition of RT. (%) ([3]; 50 μM nevirapine, line under isolate X403-4, input 4.1 × 10^−7 units): 0%
Inhibition of RT. (%) ([3]; 50 μM nevirapine, line under isolate X403-4, input 8.2 × 10^−9 units): 0%
RT inhibition ([3]; 50 μM nevirapine, mixture 10% resistant (W786-6) and 90% sensitive (X267-1) viruses): 94%
RT inhibition ([3]; 50 μM nevirapine, mixture containing 25% resistant viruses): 80%
RT inhibition ([3]; 50 μM nevirapine, mixture containing 75% resistant viruses): 29%
inhibition of RT activity ([3]; 50 μM nevirapine, resistant isolates): little or no inhibition
RT inhibition ([3]; 50 μM nevirapine, sensitive isolate X267-1 alone): > 99%
Inhibition of RT by Nevirapine ([3]; 50 μM, HIV-1RTMC/MT-2 (67N/70R/215F/219Q), AZT-resistant): 91.8%
Inhibition of RT by Nevirapine ([3]; 50 μM, HIV-1RTMDR1/MT-2 (74V/41L/106A/215Y)): 43%
Inhibition of RT by Nevirapine ([3]; 50 μM, L6KL5 (103N/75I/77L/116Y/151M)): 7%
Inhibition of RT by Nevirapine ([3]; 50 μM, L6KL5 (103N/75I/77L/116Y/151M), listed as Nevirapine): 0%
Inhibition of RT by Nevirapine ([3]; 50 μM, M184V/Y181CEU (184V/181C)): 0%
Inhibition of RT by Nevirapine ([3]; 50 μM, M184Vpitt (184V), 3TC-resistant): 98.8%
Inhibition of RT by Nevirapine ([3]; 50 μM, N119 (181C)): 0%
Inhibition of RT by Nevirapine ([3]; 50 μM, N119 (181C), listed as Nevirapine): 7%
susceptibility to nevirapine ([3]; 50 μM, viruses containing mutations associated with AZT or 3TC resistance): susceptible
Units of RT activity With 50 μM Nevirapine ([3]; isolate W786-6, 5.6 × 10^−8 without nevirapine): 7.7 × 10^−8 Units of RT activity
Units of RT activity With 50 μM Nevirapine ([3]; isolate X267-1, 7.1 × 10^−7 without nevirapine): 9.1 × 10^−9 Units of RT activity
Units of RT activity With 50 μM Nevirapine ([3]; isolate X403-4, 4.4 × 10^−7 without nevirapine): 3.7 × 10^−7 Units of RT activity
Units of RT activity With 50 μM Nevirapine ([3]; line under isolate X403-4, 4.1 × 10^−7 without nevirapine): 5.0 × 10^−7 Units of RT activity
Units of RT activity With 50 μM Nevirapine ([3]; line under isolate X403-4, 8.2 × 10^−9 without nevirapine): 8.4 × 10^−9 Units of RT activity
RT inhibition ([4]; patient N06, after 7 days of treatment): 100%
RT inhibition ([4]; patient N07, day 7 of treatment): 24%
RT inhibition ([4]; patient N12, after 7 days of treatment): 94%
RT inhibition ([4]; patient N12, day 14 of treatment): 32%
mean RT inhibition ([4]; samples after more than two weeks of treatment): 13.82%
mean RT inhibition ([4]; samples collected before therapy (n=7)): 99.3%
mean RT inhibition ([4]; samples of the first six days of treatment (n=14)): 98.2%
IC50 ([5]; isolate S469-2/M3 (Y188L)): 100000 nM
IC50 ([5]; isolate X165-6 (no mutations)): 70 nM
IC50 ([5]; isolate X267-1 (no mutations)): 40 nM

Nc1ccn([C@H]2CC[C@@H](COP(=O)(O)OP(=O)(O)OP(=O)(O)O)O2)c(=O)n1 [ddC-TP, ddC-triphosphate]
IC50 ([1]; MNR HIV-1SUM8 (Q151M)): 1800 nM
fold resistance (IC50) as compared to the mean IC values of WT HIV-1 ([1]; MNR HIV-1SUM8 (Q151M)): (3.6) fold
IC50 [1, 6]: 6000 nM
fold resistance (IC50) as compared to the mean IC values of WT HIV-1 [1, 6]: (12) fold
IC50 [1, 7]: 7500 nM
fold resistance (IC50) as compared to the mean IC values of WT HIV-1 [1, 7]: (15) fold
IC50 ([1]; WT HIV-1LAI): 500 nM
IC50 ([1]; WT HIV-1SUM9): 500 nM
